Results from patent US10167262B2, “Herbicidal substituted 3-arylpyrazoles” (FMC CORPORATION, priority 2014, dated 2019).

Tests used:
Test in all cases: Test E pre-/postemergence greenhouse test, plant response rating 0-100
Type in all cases: in vivo
[1] = test system: sandbur (southern sandbur, Cenchrus echinatus); conditions: Postemergence, scale 0 to 100
Text: (§1) Seeds of plant species selected from corn (Zea mays), soybean (Glycine max), velvetleaf (Abutilon theophrasti), lambsquarters (Chenopodium album), wild poinsettia (Euphorbia heterophylla), palmer pigweed (Amaranthus palmeri), waterhemp (common waterhemp, Amaranthus rudis), surinam grass (Brachiaria decumbens), large (Lg) crabgrass (Digitaria sanguinalis), Brazilian crabgrass (Digitaria horizontalis), fall panicum (Panicum dichotomiflorum), giant foxtail (Setaria faberii), green foxtail (Setaria viridis), goosegrass (Eleusine indica), johnsongrass (Sorghum halepense), ragweed (common ragweed, Ambrosia elatior), barnyardgrass (Echinochloa crus-galli), sandbur (southern sandbur, Cenchrus echinatus), arrowleaf sida (Sida rhombifolia), Italian ryegrass (Lolium multiflorum), dayflower (Virginia (VA) dayflower, Commelina virginica), field bindweed (Convolvulus arvensis), morningglory (Ipomoea coccinea), nightshade (eastern black nightshade, Solanum ptycanthum), kochia (Kochia scoparia), yellow nutsedge (Cyperus esculentus), smartweed (ladysthumb smartweed, Polygonum persicaria), cocklebur (common cocklebur, Xanthium strumarium), and hairy beggarticks (Bidens pilosa), were planted into a silt loam soil and treated preemergence with test chemicals formulated in a non-phytotoxic solvent mixture which included a surfactant.
(§2) At the same time, plants from these crop and weed species and also waterhemp_RES1, (ALS & Triazine resistant common waterhemp, Amaranthus rudis), and waterhemp_RES2, (ALS & HPPD resistant common waterhemp, Amaranthus rudis) were planted in pots containing Redi-Earth® planting medium (Scotts Company, 14111 Scottslawn Road, Marysville, Ohio 43041) comprising spaghnum peat moss, vermiculite, wetting agent and starter nutrients were treated with postemergence applications of test chemicals formulated in the same manner. Plants ranged in height from 2 to 18 cm for postemergence treatments (1- to 4-leaf stage).
(§3) Treated plants and controls were maintained in a greenhouse for 14 to 21 days, after which time all species were compared to controls and visually evaluated. Plant response ratings, summarized in Table E, are based on a scale of 0 to 100 where 0 is no effect and 100 is complete control. A dash (-) response means no test result.

[2] = test system: wild poinsettia (Euphorbia heterophylla); conditions: Postemergence, scale 0 to 100
Text: as §1, §2, §3

[3] = test system: Italian ryegrass (Lolium multiflorum); conditions: Postemergence, scale 0 to 100
Text: as §1, §2, §3

[4] = test system: dayflower (Virginia (VA) dayflower, Commelina virginica); conditions: Postemergence, scale 0 to 100
Text: as §1, §2, §3

[5] = test system: arrowleaf sida (Sida rhombifolia); conditions: Postemergence
Text: as §1, §2, §3

[6] = test system: Brazilian crabgrass (Digitaria horizontalis); conditions: Postemergence, scale 0 to 100
Text: as §1, §2, §3

[7] = test system: barnyardgrass (Echinochloa crus-galli); conditions: Postemergence, scale 0 to 100
Text: as §1, §2, §3

[8] = test system: fall panicum (Panicum dichotomiflorum); conditions: Postemergence, scale 0 to 100
Text: as §1, §2, §3

corn (Zea mays) = conditions: Postemergence, scale 0 to 100
Text: as §1, §2, §3

[9] = test system: palmer pigweed (Amaranthus palmeri); conditions: Postemergence, scale 0 to 100
Text: as §1, §2, §3

[10] = 500 g ai/ha, scale 0 to 100 (0 no effect, 100 complete control)

CCn1cc(C(=O)c2cccs2)c(-c2cc(Cl)cc(Cl)c2)n1 [Compound 18]
60: Plant response rating, Arrowleaf Sida ([5]; 31 g ai/ha, scale 0 to 100)
25: Plant response rating, Barnyardgrass ([7]; 250 g ai/ha) | Plant response rating, Barnyardgrass ([7]; 500 g ai/ha)
80: Plant response rating, Arrowleaf Sida ([5]; 125 g ai/ha, scale 0 to 100) | Plant response rating, Arrowleaf Sida ([5]; 250 g ai/ha, scale 0 to 100)
90: Plant response rating, Pigweed, Palmer ([9]; 31 g ai/ha) | Plant response rating, Pigweed, Palmer ([9]; 62 g ai/ha) | Plant response rating, Pigweed, Palmer ([9]; 125 g ai/ha)
10: Plant response rating, Barnyardgrass ([7]; 62 g ai/ha) | Plant response rating, Panicum, Fall ([8]; 500 g ai/ha) | Plant response rating, Corn (corn (Zea mays); 500 g ai/ha)
40: Plant response rating, Poinsettia, Wild ([2]; 500 g ai/ha)
70: Plant response rating, Arrowleaf Sida ([5]; 62 g ai/ha, scale 0 to 100)
15: Plant response rating, Sandbur ([1]; 250 g ai/ha) | Plant response rating, Crabgrass, Brazil ([6]; 125 g ai/ha)
0: Plant response rating, Sandbur ([1]; 31 g ai/ha) | Plant response rating, Sandbur ([1]; 62 g ai/ha) | Plant response rating, Sandbur ([1]; 125 g ai/ha) | Plant response rating, Ryegrass, Italian ([3]; 31 g ai/ha) | Plant response rating, Ryegrass, Italian ([3]; 62 g ai/ha) | Plant response rating, Ryegrass, Italian ([3]; 125 g ai/ha) | Plant response rating, Ryegrass, Italian ([3]; 250 g ai/ha) | Plant response rating, Ryegrass, Italian ([3]; 500 g ai/ha) | Plant response rating, Dayflower, VA ([4]; 31 g ai/ha) | Plant response rating, Dayflower, VA ([4]; 62 g ai/ha) | Plant response rating, Dayflower, VA ([4]; 125 g ai/ha) | Plant response rating, Dayflower, VA ([4]; 250 g ai/ha) | Plant response rating, Crabgrass, Brazil ([6]; 31 g ai/ha) | Plant response rating, Barnyardgrass ([7]; 31 g ai/ha) | Plant response rating, Panicum, Fall ([8]; 31 g ai/ha) | Plant response rating, Panicum, Fall ([8]; 62 g ai/ha) | Plant response rating, Panicum, Fall ([8]; 125 g ai/ha) | Plant response rating, Panicum, Fall ([8]; 250 g ai/ha) | Plant response rating, Corn (corn (Zea mays); 31 g ai/ha) | Plant response rating, Corn (corn (Zea mays); 62 g ai/ha) | Plant response rating, Corn (corn (Zea mays); 125 g ai/ha) | Plant response rating, Corn (corn (Zea mays); 250 g ai/ha)
85: Plant response rating, Arrowleaf Sida [5, 10]
5: Plant response rating, Poinsettia, Wild ([2]; 31 g ai/ha) | Plant response rating, Dayflower, VA ([4]; 500 g ai/ha) | Plant response rating, Crabgrass, Brazil ([6]; 62 g ai/ha)
98: Plant response rating, Pigweed, Palmer ([9]; 250 g ai/ha) | Plant response rating, Pigweed, Palmer ([9]; 500 g ai/ha)
20: Plant response rating, Sandbur ([1]; 500 g ai/ha) | Plant response rating, Poinsettia, Wild ([2]; 62 g ai/ha) | Plant response rating, Crabgrass, Brazil ([6]; 250 g ai/ha) | Plant response rating, Crabgrass, Brazil ([6]; 500 g ai/ha) | Plant response rating, Barnyardgrass ([7]; 125 g ai/ha)
30: Plant response rating, Poinsettia, Wild ([2]; 125 g ai/ha) | Plant response rating, Poinsettia, Wild ([2]; 250 g ai/ha)

ON=C(c1ccccc1)c1c[nH]nc1-c1cc(Cl)cc(Cl)c1 [Compound 50]
10: Plant response rating, Barnyardgrass ([7]; 500 g ai/ha)
75: Plant response rating, Pigweed, Palmer ([9]; 62 g ai/ha)
30: Plant response rating, Poinsettia, Wild ([2]; 500 g ai/ha)
98: Plant response rating, Pigweed, Palmer ([9]; 250 g ai/ha) | Plant response rating, Pigweed, Palmer ([9]; 500 g ai/ha)
70: Plant response rating, Arrowleaf Sida ([5]; 250 g ai/ha, scale 0 to 100)
50: Plant response rating, Arrowleaf Sida ([5]; 31 g ai/ha, scale 0 to 100) | Plant response rating, Arrowleaf Sida ([5]; 62 g ai/ha, scale 0 to 100)
0: Plant response rating, Sandbur ([1]; 31 g ai/ha) | Plant response rating, Sandbur ([1]; 62 g ai/ha) | Plant response rating, Sandbur ([1]; 125 g ai/ha) | Plant response rating, Sandbur ([1]; 250 g ai/ha) | Plant response rating, Sandbur ([1]; 500 g ai/ha) | Plant response rating, Poinsettia, Wild ([2]; 31 g ai/ha) | Plant response rating, Poinsettia, Wild ([2]; 62 g ai/ha) | Plant response rating, Poinsettia, Wild ([2]; 125 g ai/ha) | Plant response rating, Ryegrass, Italian ([3]; 31 g ai/ha) | Plant response rating, Ryegrass, Italian ([3]; 62 g ai/ha) | Plant response rating, Ryegrass, Italian ([3]; 125 g ai/ha) | Plant response rating, Ryegrass, Italian ([3]; 250 g ai/ha) | Plant response rating, Ryegrass, Italian ([3]; 500 g ai/ha) | Plant response rating, Dayflower, VA ([4]; 31 g ai/ha) | Plant response rating, Dayflower, VA ([4]; 62 g ai/ha) | Plant response rating, Dayflower, VA ([4]; 125 g ai/ha) | Plant response rating, Dayflower, VA ([4]; 250 g ai/ha) | Plant response rating, Dayflower, VA ([4]; 500 g ai/ha) | Plant response rating, Crabgrass, Brazil ([6]; 31 g ai/ha) | Plant response rating, Crabgrass, Brazil ([6]; 62 g ai/ha) | Plant response rating, Crabgrass, Brazil ([6]; 125 g ai/ha) | Plant response rating, Crabgrass, Brazil ([6]; 250 g ai/ha) | Plant response rating, Crabgrass, Brazil ([6]; 500 g ai/ha) | Plant response rating, Barnyardgrass ([7]; 31 g ai/ha) | Plant response rating, Barnyardgrass ([7]; 62 g ai/ha) | Plant response rating, Barnyardgrass ([7]; 125 g ai/ha) | Plant response rating, Barnyardgrass ([7]; 250 g ai/ha) | Plant response rating, Panicum, Fall ([8]; 31 g ai/ha) | Plant response rating, Panicum, Fall ([8]; 62 g ai/ha) | Plant response rating, Panicum, Fall ([8]; 125 g ai/ha) | Plant response rating, Panicum, Fall ([8]; 250 g ai/ha) | Plant response rating, Panicum, Fall ([8]; 500 g ai/ha) | Plant response rating, Corn (corn (Zea mays); 31 g ai/ha) | Plant response rating, Corn (corn (Zea mays); 62 g ai/ha) | Plant response rating, Corn (corn (Zea mays); 125 g ai/ha) | Plant response rating, Corn (corn (Zea mays); 250 g ai/ha) | Plant response rating, Corn (corn (Zea mays); 500 g ai/ha)
80: Plant response rating, Arrowleaf Sida [5, 10] | Plant response rating, Pigweed, Palmer ([9]; 125 g ai/ha)
20: Plant response rating, Poinsettia, Wild ([2]; 250 g ai/ha)
60: Plant response rating, Arrowleaf Sida ([5]; 125 g ai/ha, scale 0 to 100)
65: Plant response rating, Pigweed, Palmer ([9]; 31 g ai/ha)

C=CCn1cc(C(=O)c2ccccc2)c(-c2cc(Cl)cc(Cl)c2)n1 [Compound 60]
30: Plant response rating, Pigweed, Palmer ([9]; 62 g ai/ha)
45: Plant response rating, Arrowleaf Sida ([5]; 125 g ai/ha, scale 0 to 100) | Plant response rating, Arrowleaf Sida ([5]; 250 g ai/ha, scale 0 to 100)
25: Plant response rating, Arrowleaf Sida ([5]; 16 g ai/ha, scale 0 to 100)
35: Plant response rating, Arrowleaf Sida ([5]; 31 g ai/ha, scale 0 to 100) | Plant response rating, Arrowleaf Sida ([5]; 62 g ai/ha, scale 0 to 100) | Plant response rating, Pigweed, Palmer ([9]; 125 g ai/ha) | Plant response rating, Pigweed, Palmer ([9]; 250 g ai/ha)
0: Plant response rating, Sandbur ([1]; 31 g ai/ha) | Plant response rating, Sandbur ([1]; 62 g ai/ha) | Plant response rating, Sandbur ([1]; 125 g ai/ha) | Plant response rating, Sandbur ([1]; 250 g ai/ha) | Plant response rating, Poinsettia, Wild ([2]; 31 g ai/ha) | Plant response rating, Poinsettia, Wild ([2]; 62 g ai/ha) | Plant response rating, Poinsettia, Wild ([2]; 125 g ai/ha) | Plant response rating, Poinsettia, Wild ([2]; 250 g ai/ha) | Plant response rating, Ryegrass, Italian ([3]; 31 g ai/ha) | Plant response rating, Ryegrass, Italian ([3]; 62 g ai/ha) | Plant response rating, Ryegrass, Italian ([3]; 125 g ai/ha) | Plant response rating, Ryegrass, Italian ([3]; 250 g ai/ha) | Plant response rating, Dayflower, VA ([4]; 16 g ai/ha) | Plant response rating, Dayflower, VA ([4]; 31 g ai/ha) | Plant response rating, Dayflower, VA ([4]; 62 g ai/ha) | Plant response rating, Dayflower, VA ([4]; 125 g ai/ha) | Plant response rating, Dayflower, VA ([4]; 250 g ai/ha) | Plant response rating, Crabgrass, Brazil ([6]; 16 g ai/ha) | Plant response rating, Crabgrass, Brazil ([6]; 31 g ai/ha) | Plant response rating, Crabgrass, Brazil ([6]; 62 g ai/ha) | Plant response rating, Crabgrass, Brazil ([6]; 125 g ai/ha) | Plant response rating, Crabgrass, Brazil ([6]; 250 g ai/ha) | Plant response rating, Barnyardgrass ([7]; 16 g ai/ha) | Plant response rating, Barnyardgrass ([7]; 31 g ai/ha) | Plant response rating, Barnyardgrass ([7]; 62 g ai/ha) | Plant response rating, Barnyardgrass ([7]; 125 g ai/ha) | Plant response rating, Barnyardgrass ([7]; 250 g ai/ha) | Plant response rating, Panicum, Fall ([8]; 31 g ai/ha) | Plant response rating, Panicum, Fall ([8]; 62 g ai/ha) | Plant response rating, Panicum, Fall ([8]; 125 g ai/ha) | Plant response rating, Panicum, Fall ([8]; 250 g ai/ha) | Plant response rating, Corn (corn (Zea mays); 16 g ai/ha) | Plant response rating, Corn (corn (Zea mays); 31 g ai/ha) | Plant response rating, Corn (corn (Zea mays); 62 g ai/ha) | Plant response rating, Corn (corn (Zea mays); 125 g ai/ha) | Plant response rating, Corn (corn (Zea mays); 250 g ai/ha)
